Data set [1] has as its target T1, Bromodomain-containing protein 4 (Homo sapiens, UniProt O60885). Briefly: Inhibition of BRD4 BD1 (unknown origin) incubated for 30 mins in presence of fluorescent ligand by TR-FRET method. For orientation: In TR-FRET formats the signal depends on donor and acceptor labels being close together.
For data set [2], the target named is T1, Bromodomain-containing protein 4. Briefly: Inhibition of BRD4 BD2 (unknown origin) incubated for 30 mins in presence of fluorescent ligand by TR-FRET method.
For a further data set, the target named is C-C motif chemokine 2 (Homo sapiens, UniProt P13500). Put plainly: Inhibition of MCP-1 in LPS-stimulated human whole blood incubate for 24 hrs by immuno assay. The format is tissue-based.
A short description of data set [3]: Solubility of the compound at pH 6.5 in fast state simulated intestinal fluid incubated for 16 hrs by HPLC analysis. The format is physicochemical. The conditions noted are these: fasted state simulated intestinal fluid (FaSSIF).
The next data set deals with Cytochrome P450 3A4 (Homo sapiens, UniProt P08684). Briefly: Inhibition of CYP3A4 (unknown origin). The format is ADME.
Data set [4] can be described thus: Artificial membrane permeability of the compound. The conditions noted are these: PAMPA; read-out: permeability. The format is ADME. (The PAMPA barrier holds no transporters, so it reflects passive diffusion.)
The target in data set [5] is Voltage-gated inwardly rectifying potassium channel KCNH2 (Homo sapiens, UniProt Q12809). Put plainly: Inhibition of hERG. It is filed as toxicity. (In general: The hERG channel carries a current that helps repolarise heart muscle cells.)
A short description of data set [6]: Solubility of the compound in saline by CLND method. It is filed as physicochemical.
Data set [7] can be described thus: Intrinsic clearance in dog hepatocytes incubated upto 45 mins by LC-MS/MS analysis. The conditions noted are these: 0.75 h. The format is ADME, cell-based, Canis lupus familiaris, Hepatocyte.
Data set [8] in a line: Intrinsic clearance in human hepatocytes measured after 120 mins by LC-MS/MS analysis. It is filed as ADME, cell-based, Hepatocyte. Particulars: 2 h.
Data set [9] can be described thus: Intrinsic clearance in rat hepatocytes after 60 mins by LC-MS/MS analysis. It is filed as ADME, cell-based, Hepatocyte. The conditions noted are these: 1 h.

Results on 17 molecules are retold here after ChEMBL document CHEMBL5154688, “Design, Synthesis, and Characterization of I-BET567, a Pan-Bromodomain and Extra Terminal (BET) Bromodomain Oral Candidate” (J Med Chem, 2022).

SMILES strings stand for the structures. In brackets after ≈: the same amount, converted by molar mass. A value given as a limit tells only on which side of the number the result lay.

The IC50 is the point on the concentration scale where inhibition reaches its midpoint. The solubility is the dissolved amount per volume that the medium holds. Low values mean little dissolved substance, high ones much dissolved substance. In general, kinetic solubility refers to the concentration staying in solution when a stock, usually in DMSO, is diluted into the medium.

C-C motif chemokine 2, sequence (P13500 whole entry): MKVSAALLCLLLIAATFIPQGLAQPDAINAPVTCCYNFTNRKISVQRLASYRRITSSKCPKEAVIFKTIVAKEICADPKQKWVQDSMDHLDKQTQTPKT
Voltage-gated inwardly rectifying potassium channel KCNH2, sequence (Q12809 whole entry): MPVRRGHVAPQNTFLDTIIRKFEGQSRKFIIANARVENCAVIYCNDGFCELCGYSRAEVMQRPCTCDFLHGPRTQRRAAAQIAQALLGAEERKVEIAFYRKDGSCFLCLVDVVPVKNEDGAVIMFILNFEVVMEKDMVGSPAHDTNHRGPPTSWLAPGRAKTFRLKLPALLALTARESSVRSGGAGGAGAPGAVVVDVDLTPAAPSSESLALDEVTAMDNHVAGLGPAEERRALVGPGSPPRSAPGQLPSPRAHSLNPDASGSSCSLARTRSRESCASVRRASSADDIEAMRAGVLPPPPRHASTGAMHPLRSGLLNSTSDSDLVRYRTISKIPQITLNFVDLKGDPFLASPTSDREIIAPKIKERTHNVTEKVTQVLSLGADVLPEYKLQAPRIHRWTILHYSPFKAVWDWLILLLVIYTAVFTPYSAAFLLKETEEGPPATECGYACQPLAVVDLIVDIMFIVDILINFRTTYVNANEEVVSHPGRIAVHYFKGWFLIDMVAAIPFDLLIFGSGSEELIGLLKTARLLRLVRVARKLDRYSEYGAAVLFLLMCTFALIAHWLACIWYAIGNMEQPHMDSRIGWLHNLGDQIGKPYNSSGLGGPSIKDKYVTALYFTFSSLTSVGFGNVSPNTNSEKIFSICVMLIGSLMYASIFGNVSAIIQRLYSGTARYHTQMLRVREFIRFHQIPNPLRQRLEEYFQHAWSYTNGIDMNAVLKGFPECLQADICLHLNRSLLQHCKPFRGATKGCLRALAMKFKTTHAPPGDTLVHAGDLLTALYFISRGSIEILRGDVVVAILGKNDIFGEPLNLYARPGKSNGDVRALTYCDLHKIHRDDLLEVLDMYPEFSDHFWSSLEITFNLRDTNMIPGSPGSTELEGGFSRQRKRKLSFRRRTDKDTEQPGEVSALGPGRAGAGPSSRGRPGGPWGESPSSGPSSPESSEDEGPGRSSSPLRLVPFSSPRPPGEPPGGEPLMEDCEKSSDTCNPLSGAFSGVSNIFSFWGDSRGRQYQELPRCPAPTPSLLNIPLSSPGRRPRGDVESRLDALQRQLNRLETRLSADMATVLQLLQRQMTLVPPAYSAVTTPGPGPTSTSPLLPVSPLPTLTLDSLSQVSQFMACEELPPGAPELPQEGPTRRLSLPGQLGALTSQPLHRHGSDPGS
Cytochrome P450 3A4, sequence (P08684 whole entry, the tested form may be a part): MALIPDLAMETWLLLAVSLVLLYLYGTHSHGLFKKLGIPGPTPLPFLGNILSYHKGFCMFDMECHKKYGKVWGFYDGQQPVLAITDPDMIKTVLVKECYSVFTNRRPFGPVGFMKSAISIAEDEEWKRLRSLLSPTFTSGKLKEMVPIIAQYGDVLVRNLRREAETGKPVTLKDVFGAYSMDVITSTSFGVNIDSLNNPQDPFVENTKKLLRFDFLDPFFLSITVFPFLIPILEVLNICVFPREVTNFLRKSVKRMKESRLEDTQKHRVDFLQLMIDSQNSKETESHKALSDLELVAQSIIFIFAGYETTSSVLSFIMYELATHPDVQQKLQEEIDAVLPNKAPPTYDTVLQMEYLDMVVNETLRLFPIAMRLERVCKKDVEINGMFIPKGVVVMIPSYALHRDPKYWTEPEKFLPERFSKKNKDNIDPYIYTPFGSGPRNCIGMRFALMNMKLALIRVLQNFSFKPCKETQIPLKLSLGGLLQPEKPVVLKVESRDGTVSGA

As for `CC(=O)N1c2ccc(C(N)=O)cc2[C@H](Nc2ccc(Cl)cn2)C[C@@H]1C`, the IC50 is 251 nM in data set [1]; 79.4 nM in data set [2]; 398 nM at C-C motif chemokine 2; > 39800 nM against Cytochrome P450 3A4; > 50100 nM in data set [5]. The solubility at 16 h in [3] is 884 µg/mL (≈ 2460 µM). Further, the Papp in [4] worked out at 15 ×10⁻⁶ cm/s.

For the molecule `CC(=O)N1c2ccc(C(N)=O)cc2[C@H](Nc2cccc(Cl)c2)C[C@@H]1C`, the IC50 is 200 nM in data set [1] and 20 nM in data set [2]. Also, the concentration in solution in data set [3] (solubility at 16 h) came to 33 µg/mL (≈ 92.2 µM). Moreover, in data set [4], the Papp was 40 ×10⁻⁶ cm/s.

`CCNC(=O)c1ccc2c(c1)[C@H](Nc1ccc(Cl)cn1)C[C@H](C)N2C(C)=O`: the IC50 in data set [1] is 316 nM; in data set [2], 79.4 nM. Also, the solubility at 16 h in [3] was 90 µg/mL (≈ 233 µM). For the same molecule, in data set [4], the Papp was 35 ×10⁻⁶ cm/s.

In the case of `CCNC(=O)c1ccc2c(c1)[C@H](Nc1ccc(F)cn1)C[C@H](C)N2C(C)=O`, the solubility (kinetic) in data set [6] is ≥ 126 µg/mL. Besides, the figures for the IC50 in data set [1] and in [2] were 794 nM and 158 nM, respectively. In addition, the Papp in data set [4] is 23 ×10⁻⁶ cm/s.

Regarding `CCNC(=O)c1ccc2c(c1)[C@H](Nc1ccc(C)cn1)C[C@H](C)N2C(C)=O`, the IC50 is 794 nM in data set [1] and 158 nM in [2]. This molecule showed a solubility at 16 h in data set [3] of 44 µg/mL (≈ 120 µM). Also, the Papp in [4] came to 25 ×10⁻⁶ cm/s.

Consider `CC(=O)N1c2ccc(C(N)=O)cc2[C@H](Nc2ccc(C)cn2)C[C@@H]1C`, for which the solubility (kinetic) in data set [6] is ≥ 143 µg/mL. The IC50 in [1] is 794 nM; in data set [2], 158 nM. Besides, the Papp in data set [4] stood at 8.2 ×10⁻⁶ cm/s.

In the case of `CC(=O)N1c2ccc(F)cc2[C@H](Nc2cnc(C)cn2)C[C@@H]1C`, the IC50 was 1260 nM in [1] and 631 nM in data set [2]. In addition, the solubility at 16 h in data set [3] is > 1000 µg/mL. The Papp in data set [4] amounted to 52 ×10⁻⁶ cm/s.

For `CC(=O)N1c2ccc(F)cc2[C@H](Nc2cnc(C#N)cn2)C[C@@H]1C`, in data set [6], the solubility (kinetic) is 99 µg/mL (≈ 304 µM). The IC50 is 1260 nM in data set [1] and 1000 nM in [2]. In [4], the Papp amounted to 30 ×10⁻⁶ cm/s.

As for `CC(=O)N1c2ccccc2[C@H](Nc2cnc(C#N)cn2)C[C@@H]1C`, the IC50 in [1] and in data set [2] was 1260 nM throughout. The solubility at 16 h in data set [3] was 955 µg/mL (≈ 3110 µM). The Papp in [4] is 32 ×10⁻⁶ cm/s.

On to `CC(=O)N1c2ccc(C#N)cc2[C@H](Nc2cnc(C#N)cn2)C[C@@H]1C`, for which the IC50 in [1] and in data set [2] was 501 nM throughout. For the same molecule, the solubility at 16 h in [3] is 60 µg/mL (≈ 181 µM). In data set [4], the Papp came out at 19 ×10⁻⁶ cm/s.

Consider `CCNC(=O)c1ccc2c(c1)[C@H](Nc1cnc(C#N)cn1)C[C@H](C)N2C(C)=O`, for which the kinetic solubility in data set [6] was ≥ 73 µg/mL. Besides, the IC50 in [1] is 501 nM; in data set [2], 1000 nM. The Papp in [4] worked out at 0.3 ×10⁻⁶ cm/s.

As to `CCNC(=O)c1ccc2c(c1)[C@H](Nc1ccc(C#N)cn1)C[C@H](C)N2C(C)=O`, the IC50 in data set [1] was 200 nM; in data set [2] it was 100 nM; against C-C motif chemokine 2 it was 251 nM; against Cytochrome P450 3A4, > 39800 nM; in [5], > 50100 nM. Also, the CLH in data set [7] is < 1.26 mL/min/g; in data set [8], < 0.87 mL/min/g; in data set [9], 4.3 mL/min/g. Moreover, the solubility at 16 h in [3] was > 1000 µg/mL. Moreover, the Papp in [4] turned out to be 4.6 ×10⁻⁶ cm/s.

For the molecule `CC(=O)N1c2ccccc2[C@H](Nc2ccc(C#N)cn2)C[C@@H]1C`, the IC50 in [1] is 1000 nM; in data set [2], 316 nM. For the same molecule, the solubility at 16 h in data set [3] is 533 µg/mL (≈ 1740 µM). Moreover, the Papp in data set [4] was 48 ×10⁻⁶ cm/s.

`CC(=O)N1c2ccc(C#N)cc2[C@H](Nc2ccc(C#N)cn2)C[C@@H]1C`: the values for the IC50 in data set [1] and in data set [2] were 501 nM and 158 nM, respectively. Besides, the concentration in solution in data set [3] (solubility at 16 h) was 279 µg/mL (≈ 842 µM). In data set [4], the Papp was 31 ×10⁻⁶ cm/s.

Regarding `CC(=O)N1c2ccccc2[C@H](Nc2cnc(C)cn2)C[C@@H]1C`, the IC50 was 1000 nM in [1] and 501 nM in data set [2]. Moreover, in data set [3], the solubility at 16 h is 270 µg/mL (≈ 911 µM). Moreover, the Papp in data set [4] is 54 ×10⁻⁶ cm/s.

As to `CC(=O)N1c2ccc(F)cc2[C@H](Nc2ccc(C#N)cn2)C[C@@H]1C`, the IC50 in data set [1] is 794 nM; in [2] it was 316 nM. The same molecule registered a solubility at 16 h in data set [3] of 558 µg/mL (≈ 1720 µM). Also, the Papp in data set [4] was 51 ×10⁻⁶ cm/s.

As for `CCNC(=O)c1ccc2c(c1)[C@H](Nc1ncc(Cl)cn1)C[C@H](C)N2C(C)=O`, the IC50 in [1] was 100 nM; in data set [2], 79.4 nM. The molecule further displayed a solubility at 16 h in data set [3] of 82 µg/mL (≈ 211 µM). Besides, the Papp in data set [4] is < 18 ×10⁻⁶ cm/s.
